According to patent US20150299219A1, “BICYCLIC PYRAZOLONE COMPOUNDS AND METHODS OF USE” (Calitor Sciences, LLC, priority 2014, published 2015):

Biological target: T1, Mer (h) (Homo sapiens, UniProt Q12866)
T1 construct: purchased Millipore UK Ltd
T1 sequence (Q12866 21-999): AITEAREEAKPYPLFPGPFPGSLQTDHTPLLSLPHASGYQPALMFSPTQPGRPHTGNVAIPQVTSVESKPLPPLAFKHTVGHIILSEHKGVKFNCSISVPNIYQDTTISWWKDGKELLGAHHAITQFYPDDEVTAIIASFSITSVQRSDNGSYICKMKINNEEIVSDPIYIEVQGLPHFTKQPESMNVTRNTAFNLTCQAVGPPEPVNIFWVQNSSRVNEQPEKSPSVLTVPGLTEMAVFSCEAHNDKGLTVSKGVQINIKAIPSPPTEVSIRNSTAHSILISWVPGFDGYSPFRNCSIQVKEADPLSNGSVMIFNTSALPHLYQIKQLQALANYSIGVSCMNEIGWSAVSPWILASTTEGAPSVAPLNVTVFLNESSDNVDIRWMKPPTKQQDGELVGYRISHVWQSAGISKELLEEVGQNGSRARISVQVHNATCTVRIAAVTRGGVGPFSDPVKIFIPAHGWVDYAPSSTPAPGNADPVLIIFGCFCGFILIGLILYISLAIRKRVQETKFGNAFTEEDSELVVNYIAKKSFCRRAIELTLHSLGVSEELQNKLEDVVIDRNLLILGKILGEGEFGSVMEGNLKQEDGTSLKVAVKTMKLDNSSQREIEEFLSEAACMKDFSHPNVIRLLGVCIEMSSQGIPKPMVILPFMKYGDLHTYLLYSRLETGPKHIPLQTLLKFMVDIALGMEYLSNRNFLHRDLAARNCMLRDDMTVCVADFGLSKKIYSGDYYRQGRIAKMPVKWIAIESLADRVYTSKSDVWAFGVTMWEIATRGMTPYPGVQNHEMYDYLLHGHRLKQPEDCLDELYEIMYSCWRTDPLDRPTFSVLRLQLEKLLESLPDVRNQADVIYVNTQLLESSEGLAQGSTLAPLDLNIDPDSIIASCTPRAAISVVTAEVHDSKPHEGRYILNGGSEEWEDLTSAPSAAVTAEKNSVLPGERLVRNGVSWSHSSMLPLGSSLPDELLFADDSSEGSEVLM
Experiment: Mer (h) kinase assay
Type: biochemical
Protocol: The above assay procedure can be used to determine the IC50 for inhibition and/or the inhibition constant, Ki. The IC50 is defined as the concentration of compound required to reduce the enzyme activity by 50% under the condition of the assay. The IC50 value is estimated by preparing a 10 point curve using a 1/2 log dilution series (for example, a typical curve may be prepared using the following compound concentrations: 10 μM, 3 μM, 1 μM, 0.3 μM, 0.1 μM, 0.03 μM, 0.01 μM, 0.003 μM, 0.001 μM and 0 μM).
Mer (h) is incubated with 8 mM MOPS pH 7.0, 0.2 mM EDTA, 30 mM NaCl, 250 μM GGMEDIYFEFMGGKKK, 10 mM MgAcetate and [γ-^33P-ATP] (specific activity approx. 500 cpm/pmol, concentration as required). The reaction is initiated by the addition of the MgATP mix. After incubation for 40 minutes at room temperature, the reaction is stopped by the addition of 3% phosphoric acid solution. 10 μL of the reaction is then spotted onto a P30 filtermat and washed three times for 5 minutes in 75 mM phosphoric acid and once in methanol prior to drying and scintillation counting.
The kinase assays described herein were performed at Millipore UK Ltd, Dundee Technology Park, Dundee DD2 1SW, UK.

Structure (SMILES)	IC50 [nM]
O=C(Nc1ccc(Oc2ccnc(NC(=O)C3CC3)c2)cc1)c1c2n(n(-c3ccccc3)c1=O)CCC2 [Ex. 2, N-(4-((2-(cyclopropanecarboxamido)pyridin-4-yl)oxy)phenyl)-2-oxo-1-phenyl-2,4,5,6-tetrahydro-1H-pyrrolo[1,2-b]pyrazole-3-carboxamide]	3
CC(=O)Nc1cc(Oc2ccc(NC(=O)c3c4n(n(-c5ccccc5)c3=O)CCC4)cc2)ccn1 [Ex. 3, N-(4-((2-acetamidopyridin-4-yl)oxy)phenyl)-2-oxo-1-phenyl-2,4,5,6-tetrahydro-1H-pyrrolo[1,2-b]pyrazole-3-carboxamide]	35

The remaining lines, values ahead:

IC50 [nM]	Structure (SMILES)
8	O=C(Nc1ccc(Oc2ccnc(NC(=O)C3CC3)c2)cn1)c1c2n(n(-c3ccccc3)c1=O)CCC2 [Ex. 14, N-(5-((2-(cyclopropanecarboxamido)pyridin-4-yl)oxy)pyridin-2-yl)-2-oxo-1-phenyl-2,4,5,6-tetrahydro-1H-pyrrolo[1,2-b]pyrazole-3-carboxamide]
74	CC(=O)Nc1cc(Oc2ccc(NC(=O)c3c4n(n(-c5ccccc5)c3=O)CCOC4)nc2)ccn1 [Ex. 12, N-(5-((2-acetamidopyridin-4-yl)oxy)pyridin-2-yl)-2-oxo-1-phenyl-2,4,6,7-tetrahydro-1H-pyrazolo[5,1-c][1,4]oxazine-3-carboxamide]
5	O=C(Nc1ccc(Oc2ccnc(NC(=O)C3CC3)c2)cc1)c1c2n(n(-c3ccccc3)c1=O)CCOC2 [Ex. 19, N-(4-((2-(cyclopropanecarboxamido)pyridin-4-yl)oxy)phenyl)-2-oxo-1-phenyl-2,4,6,7-tetrahydro-1H-pyrazolo[5,1-c][1,4]oxazine-3-carboxamide]
